# Assay results reported in ChEMBL document CHEMBL1145376, “C-8 Modifications of 3-alkyl-1,8-dibenzylxanthines as inhibitors of human cytosolic phosphoenolpyruvate carboxykinase” (Bioorg Med Chem Lett, 2007).
# Molecular target: T1, Phosphoenolpyruvate carboxykinase, cytosolic [GTP] (Rattus norvegicus, UniProt P07379)
# T1 sequence (P07379 whole entry): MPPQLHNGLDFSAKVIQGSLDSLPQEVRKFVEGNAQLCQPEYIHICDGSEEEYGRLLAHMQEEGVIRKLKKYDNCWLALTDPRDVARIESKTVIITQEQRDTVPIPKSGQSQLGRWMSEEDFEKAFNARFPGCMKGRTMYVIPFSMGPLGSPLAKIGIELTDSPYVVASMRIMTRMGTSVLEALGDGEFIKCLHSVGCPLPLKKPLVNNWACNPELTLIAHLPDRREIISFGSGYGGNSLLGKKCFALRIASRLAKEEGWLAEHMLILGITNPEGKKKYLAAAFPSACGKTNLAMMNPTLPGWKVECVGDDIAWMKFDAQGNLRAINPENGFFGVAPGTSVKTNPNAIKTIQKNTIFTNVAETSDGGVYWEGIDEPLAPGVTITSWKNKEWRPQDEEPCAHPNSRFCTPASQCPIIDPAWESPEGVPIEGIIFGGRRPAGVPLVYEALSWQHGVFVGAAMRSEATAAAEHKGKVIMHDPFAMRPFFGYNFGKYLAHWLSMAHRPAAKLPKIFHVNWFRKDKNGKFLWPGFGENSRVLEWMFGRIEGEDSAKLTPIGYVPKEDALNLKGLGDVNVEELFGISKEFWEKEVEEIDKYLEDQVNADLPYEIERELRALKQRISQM
# Test: Inhibition of cPEPCK in rat H4IIE cells assessed as effect on glucose production
# Format: cell-based
row,EC50 [µM],SMILES
1,8.75,Cn1cc(S(=O)(=O)Nc2ccc(Cc3nc4c([nH]3)c(=O)n(Cc3ccccc3F)c(=O)n4CC3CC3)cc2)cn1
2,3.97,CCCCn1c(=O)n(Cc2ccccc2F)c(=O)c2[nH]c(Cc3ccc(NS(=O)(=O)c4c(C)nn(C)c4Cl)cc3)nc21
3,2.17,Cc1nn(C)c(Cl)c1S(=O)(=O)Nc1ccc(Cc2nc3c([nH]2)c(=O)n(Cc2ccccc2F)c(=O)n3CC2CC2)cc1
4,4.7,CC(=O)Nc1ccc(Cc2nc3c([nH]2)c(=O)n(Cc2ccccc2F)c(=O)n3CC2CC2)cc1
5,8.6,CCCCn1c(=O)n(Cc2ccccc2F)c(=O)c2[nH]c(Cc3ccc(NC(C)=O)cc3)nc21
6,8.2,Cc1nc(N)sc1S(=O)(=O)Nc1ccc(Cc2nc3c([nH]2)c(=O)n(Cc2ccccc2F)c(=O)n3CC2CC2)cc1
7,5.5,O=c1c2[nH]c(Cc3ccc(NS(=O)(=O)c4cccnc4)cc3)nc2n(CC2CC2)c(=O)n1Cc1ccccc1F
8,5.57,Cc1nn(C)cc1S(=O)(=O)Nc1ccc(Cc2nc3c([nH]2)c(=O)n(Cc2ccccc2F)c(=O)n3CC2CC2)cc1
9,3.4,Cc1noc(C)c1S(=O)(=O)Nc1ccc(Cc2nc3c([nH]2)c(=O)n(Cc2ccccc2F)c(=O)n3CC2CC2)cc1

# Molecular target: T2, Phosphoenolpyruvate carboxykinase, cytosolic [GTP] (Homo sapiens) (UniProt P35558)
# T2 sequence (whole entry): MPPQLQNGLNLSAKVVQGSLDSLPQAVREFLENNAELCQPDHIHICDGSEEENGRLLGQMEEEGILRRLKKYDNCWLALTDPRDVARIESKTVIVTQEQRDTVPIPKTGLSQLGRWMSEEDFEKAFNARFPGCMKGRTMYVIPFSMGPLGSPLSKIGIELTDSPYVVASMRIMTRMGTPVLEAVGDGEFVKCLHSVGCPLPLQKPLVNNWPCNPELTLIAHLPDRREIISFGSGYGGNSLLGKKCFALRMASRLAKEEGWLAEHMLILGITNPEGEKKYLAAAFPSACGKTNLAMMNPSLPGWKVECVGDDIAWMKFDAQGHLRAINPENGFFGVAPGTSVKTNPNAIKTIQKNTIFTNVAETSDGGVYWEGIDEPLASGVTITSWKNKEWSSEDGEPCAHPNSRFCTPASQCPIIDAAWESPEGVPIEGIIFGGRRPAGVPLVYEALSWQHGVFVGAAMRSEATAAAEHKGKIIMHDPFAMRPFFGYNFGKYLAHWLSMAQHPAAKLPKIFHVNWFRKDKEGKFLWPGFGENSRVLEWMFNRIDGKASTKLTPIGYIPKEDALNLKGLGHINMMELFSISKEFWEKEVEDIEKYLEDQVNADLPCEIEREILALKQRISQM
# Test: Inhibition of human cPEPCK at 1 uM
row,inhibition [%],SMILES
1,30,CCCCn1c(=O)n(Cc2ccccc2F)c(=O)c2[nH]c(Cc3ccc(NS(=O)(=O)c4cccs4)cc3)nc21
2,22,CCCCn1c(=O)n(Cc2ccccc2F)c(=O)c2[nH]c(Cc3ccc(NS(=O)(=O)c4ccccc4)cc3)nc21
3,31,CCCCn1c(=O)n(Cc2ccccc2F)c(=O)c2[nH]c(Cc3ccc(NS(=O)(=O)Cc4ccccc4)cc3)nc21
4,19,CCCCn1c(=O)n(Cc2ccccc2F)c(=O)c2[nH]c(Cc3ccc(NS(=O)(=O)c4ccsc4C(=O)OC)cc3)nc21

# Molecular target: T3, Phosphoenolpyruvate carboxykinase, cytosolic [GTP] (Homo sapiens, UniProt P35558)
# T3 sequence (P35558 whole entry): T2 sequence (whole entry)
# Test: Inhibition of human cPEPCK
row,IC50 [nM],SMILES
1,1800,O=C(Nc1ccc(Cc2nc3c([nH]2)c(=O)n(Cc2ccccc2F)c(=O)n3CC2CC2)cc1)C(F)(F)F
2,8700,CCCCn1c(=O)n(Cc2ccccc2F)c(=O)c2[nH]c(Cc3ccc(NC(C)=O)cc3NC(C)=O)nc21
3,2300,CCCCn1c(=O)n(Cc2ccccc2F)c(=O)c2[nH]c(Cc3ccc(NC(=O)C(F)(F)F)cc3)nc21
4,2560,CCCCn1c(=O)n(Cc2ccccc2F)c(=O)c2[nH]c(Cc3ccc(N)cc3)nc21
5,540,CCCCn1c(=O)n(Cc2ccccc2F)c(=O)c2[nH]c(Cc3ccc(NS(=O)(=O)c4c(C)nn(C)c4Cl)cc3)nc21
6,2070,CN(C)CC(=O)Nc1ccc(Cc2nc3c([nH]2)c(=O)n(Cc2ccccc2F)c(=O)n3CC2CC2)cc1
7,690,CC(=O)Nc1ccc(Cc2nc3c([nH]2)c(=O)n(Cc2ccccc2F)c(=O)n3CC2CC2)cc1
8,2110,CCCCn1c(=O)n(Cc2ccccc2F)c(=O)c2[nH]c(Cc3ccc(NC(C)=O)cc3)nc21
9,5650,CCCCn1c(=O)n(Cc2ccccc2F)c(=O)c2[nH]c(Cc3ccc(N)cc3N)nc21
10,1560,Nc1ccc(Cc2nc3c([nH]2)c(=O)n(Cc2ccccc2F)c(=O)n3CC2CC2)cc1
11,240,Cc1nn(C)cc1S(=O)(=O)Nc1ccc(Cc2nc3c([nH]2)c(=O)n(Cc2ccccc2F)c(=O)n3CC2CC2)cc1
